What follows are compounds tested against PIK3CA (human) (UniProt P42336) (assay: Inhibition of PIK3CA Kinase Activity).
PIK3CA (human), sequence (P42336 whole entry, looked up): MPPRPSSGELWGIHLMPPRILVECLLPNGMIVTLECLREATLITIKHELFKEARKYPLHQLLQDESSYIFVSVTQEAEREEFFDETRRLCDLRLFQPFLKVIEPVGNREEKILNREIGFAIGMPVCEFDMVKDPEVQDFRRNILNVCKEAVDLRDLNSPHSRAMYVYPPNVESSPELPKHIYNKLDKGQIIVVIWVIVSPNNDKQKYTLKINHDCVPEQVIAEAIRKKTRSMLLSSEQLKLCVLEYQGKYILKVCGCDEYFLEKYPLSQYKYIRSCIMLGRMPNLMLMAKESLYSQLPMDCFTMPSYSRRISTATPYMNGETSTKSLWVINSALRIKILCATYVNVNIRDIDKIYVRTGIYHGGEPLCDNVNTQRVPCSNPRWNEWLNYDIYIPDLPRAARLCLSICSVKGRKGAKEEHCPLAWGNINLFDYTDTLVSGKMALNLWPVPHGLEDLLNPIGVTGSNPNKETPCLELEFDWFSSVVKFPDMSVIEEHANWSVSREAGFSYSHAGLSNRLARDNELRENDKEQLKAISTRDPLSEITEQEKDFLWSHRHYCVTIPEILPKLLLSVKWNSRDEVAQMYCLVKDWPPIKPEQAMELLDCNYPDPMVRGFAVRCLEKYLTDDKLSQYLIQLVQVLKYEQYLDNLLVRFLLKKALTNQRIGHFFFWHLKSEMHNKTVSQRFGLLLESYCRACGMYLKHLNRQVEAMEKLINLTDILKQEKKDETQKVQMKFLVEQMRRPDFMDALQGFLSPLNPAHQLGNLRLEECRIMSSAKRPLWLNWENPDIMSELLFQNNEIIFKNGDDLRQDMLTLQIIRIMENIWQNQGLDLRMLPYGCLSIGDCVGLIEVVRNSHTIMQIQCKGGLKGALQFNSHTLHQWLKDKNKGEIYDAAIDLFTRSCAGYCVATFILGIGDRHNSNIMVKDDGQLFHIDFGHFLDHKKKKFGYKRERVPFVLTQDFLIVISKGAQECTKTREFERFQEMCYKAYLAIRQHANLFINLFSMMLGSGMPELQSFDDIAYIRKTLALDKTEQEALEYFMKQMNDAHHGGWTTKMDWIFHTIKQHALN

IC50, < 1000 nM:
O=C(Cn1cnc2c(-c3cccc(O)c3)nc(N3CCOCC3)nc21)N1CCCC1
CC(C1CC1)n1cnc2c(-c3cccc(O)c3)nc(N3CCOCC3)nc21 (stereo unspecified)
c1cc(-c2nc(N3CCOCC3)nc3c2ncn3C2CCCC2)c2cc[nH]c2c1
Nc1ncc(-c2nc(N3CCOCC3)nc3c2ncn3CC2CC2)cn1
c1cc(-c2nc(N3CCOCC3)nc3c2ncn3C2CCOC2)c2cc[nH]c2c1 (stereo unspecified)
Nc1ncc(-c2nc(N3CCOCC3)nc3c2ncn3C2CCN(C(=O)c3ccccc3)C2)cn1 (stereo unspecified)
CCC(C)n1cnc2c(-c3cncnc3)nc(N3CCOCC3)nc21 (stereo unspecified)
Nc1ccc(-c2nc(N3CCOCC3)nc3c2ncn3Cc2cccc([N+](=O)[O-])c2)cn1
CS(=O)(=O)N1CCN(C(=O)Cn2cnc3c(-c4cccc(O)c4)nc(N4CCOCC4)nc32)CC1
N#CCn1cnc2c(-c3cccc4[nH]ccc34)nc(N3CCOCC3)nc21
CCC(C)n1c(Br)nc2c(-c3cccc(O)c3)nc(N3CCOCC3)nc21 (stereo unspecified)
O=[N+]([O-])c1cccc(Cn2cnc3c(-c4cccc(O)c4)nc(N4CCOCC4)nc32)c1
CC(C)n1cnc2c(-c3ccc(N)nc3)nc(N3CCOCC3)nc21
Cc1nc(N)ncc1-c1nc(N2CCOCC2)nc2c1ncn2C(C)c1ccccc1 (stereo unspecified)
CC(C)C(C)n1cnc2c(-c3ccc(N)nc3)nc(N3CCOCC3)nc21 (stereo unspecified)
CS(=O)(=O)N1CCC(n2cnc3c(-c4cccc5[nH]ccc45)nc(N4CCOCC4)nc32)CC1
c1cc(-c2nc(N3CCOCC3)nc3c2ncn3CCC2OCCCO2)c2cc[nH]c2c1
Nc1ncc(-c2nc(N3CCOCC3)nc3c2ncn3C2CCOC2)cn1 (stereo unspecified)
O=C(CCN1CCCCC1)Nc1ccc(Cn2cnc3c(-c4cccc(O)c4)nc(N4CCOCC4)nc32)cc1
CC(C)NC(=O)Cn1cnc2c(-c3cccc(O)c3)nc(N3CCOCC3)nc21
N#CCn1cnc2c(-c3cccc(O)c3)nc(N3CCOCC3)nc21
c1cc(-c2nc(N3CCOCC3)nc3c2ncn3CC2CC2)c2cc[nH]c2c1
C#CCn1cnc2c(-c3cccc(O)c3)nc(N3CCOCC3)nc21
CCC(C)n1cnc2c(-c3cnc(N)nc3OC)nc(N3CCOCC3)nc21 (stereo unspecified)
CCSc1nc2c(-c3cccc(O)c3)nc(N3CCOCC3)nc2n1C(C)CC (stereo unspecified)
Oc1cccc(-c2nc(N3CCOCC3)nc3c2ncn3CCN2CCCC2)c1
c1cc(-c2nc(N3CCOCC3)nc3c2ncn3CC2CCCCC2)c2cc[nH]c2c1
C=CCCn1cnc2c(-c3cccc(O)c3)nc(N3CCOCC3)nc21
CC(C)(C)Cn1cnc2c(-c3cnc(N)nc3)nc(N3CCOCC3)nc21
CC(c1ccccc1)n1cnc2c(-c3cnc(N)nc3)nc(N3CCOCC3)nc21 (stereo unspecified)
O=C(Cn1cnc2c(-c3cccc(O)c3)nc(N3CCOCC3)nc21)N1CCOCC1
